Publication PMC9114115, “Property space mapping of Pseudomonas aeruginosa permeability to small molecules” (Scientific Reports, 2022)
“And” between values parts separate entries of the source, which are not always exact repeats. Equal values may be shown once. Where a name gives a salt, the structure may show the parent alone. Read-outs that look alike come from different tables or passages of the source.

Key:
[1] = test system: P. aeruginosa PAO1; test: MIC by two-fold dilution, wild type PAO1; format: cell-based, Pseudomonas aeruginosa; conditions: Pseudomonas aeruginosa
Experimental: (§1) In all experiments, P. aeruginosa PAO1-Pore (PAO1 attTn7::PLAC-fhuA) and PΔ3-Pore (ΔmexAB ΔmexCD ΔmexXY attTn7::PLAC-fhuA) strains were used[29]. Strains were routinely grown in Luria–Bertani (LB) or MOPS-M9 medium at 37 °C with aeration. MICs shown in Tables 1 and 2 were determined by a two-fold dilution method in LB broth and MOPS-M9 medium, respectively, following the previously described protocol.

[2] = test system: P. aeruginosa PAO1-Pore; test: MIC by two-fold dilution, hyperporinated PAO1-Pore; format: cell-based, Pseudomonas aeruginosa; conditions: for MICs: PAO1-Pore, LB broth, Table S2; for MIC: Pseudomonas aeruginosa, PAO1, read-out: MICs
Experimental: as §1

[3] = test system: P. aeruginosa PΔ3-Pore; test: MIC by two-fold dilution, barrierless PΔ3-Pore; format: cell-based, Pseudomonas aeruginosa; conditions: for MIC: Pseudomonas aeruginosa, read-out: MICs, P∆3-Pore, MOPS-M9 medium; for MICs: P∆3-Pore, LB broth, Table S2
Experimental: as §1

[4] = test system: P. aeruginosa PAO1 cells; test: LC–MS quantification of intracellular accumulation, PAO1; conditions: 10-80 µM; for Concentration slopes of accumulation, PAO1_1 min: 1 min incubation; for Concentration slopes of accumulation, PAO1_40 min: 40 min incubation;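 for all read-outs here: slope of accumulation versus external concentration fitted as a line through zero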
Experimental: (§2) PAO1-Pore and PΔ3-Pore were grown at 37 °C overnight with shaking at 225 rpm in 50 mM MOPS-M9 (pH 7.2) Minimal Medium supplemented with 1% glycerol[42],[43].
(§3) The next day, cells were sub-cultured (1.5:100) in fresh MOPS-M9 medium and grown for 16 h. The cultures were then split into two flasks and one of them was induced with 0.1 mM IPTG. Cells incubated for additional 4 h until OD600 reached ~ 1.0 and harvested by centrifugation at 3,275xg for 20 min in RT, washed and concentrated 10X in the spent medium. Assays were performed in 96-well plates in a final volume of […]. Cells were incubated with 10, 20, 40, 80 µM of compounds and after 1- and 40-min incubation at RT, 100 µL cell aliquots were collected by vacuum filtration onto 1.0 µm Glass Fiber Type B filters. For no-cell controls, compounds were diluted to 10, 20, 40, 80 µM final concentration in the same medium, incubated for 1 min and 40 min and filtered onto the same plates. The cell loaded and cell-free filters were dried, removed from plates and placed into 100% methanol at -80 °C for at least 10 min. Filter-bound material was extracted by water bath sonication for 1 min. Cell and filter debris were separated by ultracentrifugation at 45,000 rpm (TLA55 rotor, Beckman) for 8 min at 16 °C and the pellet re-extracted with 80% methanol in water by sonication for 15 min followed by ultracentrifugation at the same conditions. Supernatants from two extractions were combined. For the compound quantification, 5 µL of solution was analyzed in triplicate.
(§4) Calibration curves for MS analyses of compounds were generated in the same experiment by mixing compound at increasing concentrations with the sonicated PAO1 cell extracts. […] Azithromycin was used as a positive control in all experiments.
(§5) Samples were processed in positive ion mode. An Eclipse plus C18 Rapid Resolution HD column (1.8 μm, 2.1 × 50 mm, Agilent, USA) was used for separation. The flow rate was 0.6 mL/min using the following gradient: 0 to 1 min (0- 20% ACN), 1 to 4 min (20- 80% ACN), 4 to 5.1 min (80–100% ACN), 5.1 to 6.30 (100% ACN). Solvents contained 0.1% formic acid to promote positive ion formation in the electrospray. […] Data were analyzed using Agilent Masshunter workstation quantitative analysis v. B.10 software.

[5] = test system: P. aeruginosa PAO1-Pore cells; test: LC–MS quantification of intracellular accumulation, PAO1-Pore; conditions: 10-80 µM; for Concentration slopes of accumulation, PAO1-Pore_1 min: 1 min incubation; for Concentration slopes of accumulation, PAO1-Pore_40 min: 40 min incubation;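 for all read-outs here: slope of accumulation versus external concentration fitted as a line through zero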
Experimental: as §2, §3, §4, §5

[6] = test system: P. aeruginosa PΔ3 cells; conditions: 10-80 µM; for Concentration slopes of accumulation, PΔ3_1 min: 1 min incubation; for Concentration slopes of accumulation, PΔ3_40 min: 40 min incubation;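 for all read-outs here: slope of accumulation versus external concentration fitted as a line through zero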
Experimental: as §2, §3, §4, §5

[7] = test system: P. aeruginosa PΔ3-Pore cells; test: LC–MS quantification of intracellular accumulation, PΔ3-Pore; conditions: 10-80 µM; for Concentration slopes of accumulation, PΔ3-Pore_1 min: 1 min incubation; for Concentration slopes of accumulation, PΔ3-Pore_40min: 40 min incubation;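 for all read-outs here: slope of accumulation versus external concentration fitted as a line through zero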
Experimental: as §2, §3, §4, §5

[8] = test system: P. aeruginosa PΔ3; test: microbe, parasite or virus in culture; format: cell-based, Pseudomonas aeruginosa; conditions: Pseudomonas aeruginosa, read-out: MICs
Experimental: as §1

[9] = PAO1, MOPS-M9 medium, read-out: MICs

Row | SMILES | MIC [1, 9] | MICs [2] | MIC [2] | MIC [3] | MICs [3] | Concentration slopes of accumulation, PAO1_1 min [4] | Concentration slopes of accumulation, PAO1_40 min [4] | Concentration slopes of accumulation, PAO1-Pore_1 min [5] | Concentration slopes of accumulation, PAO1-Pore_40 min [5] | Concentration slopes of accumulation, PΔ3_1 min [6] | Concentration slopes of accumulation, PΔ3_40 min [6] | Concentration slopes of accumulation, PΔ3-Pore_1 min [7] | Concentration slopes of accumulation, PΔ3-Pore_40min [7] | MIC [8] | MIC ([1]; PAO1, read-out: MICs)
1 | CCn1cc(C(=O)O)c(=O)c2cc(F)c(N3CCN(C)CC3)cc21 [OU-0000619, PEFLOXACINE MESYLATE] | 2 µM and 0.9 µg/mL | 0.25 | 0.25 µM and 0.11 µg/mL | 0.03 µg/mL | 0.0039 | 14.50 | 14.54 | 25.74 | 33.41 | 21.54 | 34.80 | 32.20 | 39.09 | – | –
2 | CCN1CCN(c2cc3c(cc2F)c(=O)c(C(=O)O)cn3C2CC2)CC1 [OU-0000620, ENROFLOXACIN] | 2 µM and 0.7 µg/mL | 0.25 | 0.0625 µM and 0.02 µg/mL | 0.016 µM and 0.01 µg/mL | 0.0039 | 18.49 | 16.52 | 26.71 | 27.91 | 14.05 | 13.99 | 26.71 | 29.82 | 0.5 µM and 0.18 µg/mL | –
3 | CCn1cc(C(=O)O)c(=O)c2cc3c(cc21)OCO3 [OU-0000621, OXOLINIC ACID] | 20 µM and 5.2 µg/mL | 6.25 | 0.625 µM and 0.16 µg/mL | 0.078 µM and 0.02 µg/mL | 0.097 | 5.93 | 6.11 | 8.17 | 6.63 | 5.83 | 6.58 | 8.75 | 6.70 | 2.5 µM and 0.65 µg/mL | –
4 | CN1CCN(c2cc3c(cc2F)c(=O)c(C(=O)O)cn3-c2ccc(F)cc2)CC1 [OU-0000624, DIFLOXACIN] | 2.5 µM and 1.1 µg/mL | 0.39 | 0.0625 µM and 0.03 µg/mL | 0.0313 µM and 0.01 µg/mL | 0.097 | 3.78 | 6.48 | 8.04 | 11.39 | 4.42 | 5.02 | 6.73 | 8.21 | 0.313 µM and 0.14 µg/mL | –
5 | COc1c(N2C[C@@H]3CCCN[C@@H]3C2)c(F)cc2c(=O)c(C(=O)O)cn(C3CC3)c12 [OU-0000626, MOXIFLOXACIN HYDROCHLORIDE] | 2.5 µM and 1.1 µg/mL | 0.39 | 0.03 µg/mL | 0.0313 µM and 0.01 µg/mL | 0.024 | 1.19 | 2.06 | 3.02 | 7.25 | 1.39 | 2.61 | 2.26 | 4.78 | 0.27 µg/mL | –
6 | CC1CCc2c(N3CCC(O)CC3)c(F)cc3c(=O)c(C(=O)O)cn1c23 (stereo not drawn) [OU-0000628, nadifloxacin] | 5 µM and 1.8 µg/mL | 0.39 | 0.0625 µM and 0.02 µg/mL | 0.0156 µM and 0.01 µg/mL | 0.0015 | 6.36 | 6.93 | 11.41 | 12.74 | 9.00 | 9.79 | 19.74 | 19.09 | 0.625 µM and 0.23 µg/mL | –
7 | COc1cnc(NS(=O)(=O)c2ccc(N)cc2)nc1 [OU-0000694] | – | – | 12.5 µM and 3.5 µg/mL | 6.25 µM and 1.75 µg/mL | – | 2.18 | 1.74 | 3.10 | 2.35 | 0.87 | 1.82 | 3.61 | 3.14 | 25 µM and 7 µg/mL | > 200 µM and > 56.1 µg/mL
8 | COc1cc(NS(=O)(=O)c2ccc(N)cc2)nc(OC)n1 [Sulfadimethoxine] | – | – | 25 µM and 7.8 µg/mL | 1.6 µM and 0.5 µg/mL | – | – | – | – | – | – | – | – | – | 200 µM and 62.1 µg/mL | > 200 µM and 62.1 µg/mL
9 | Nc1ccc(S(=O)(=O)Nc2ccnn2-c2ccccc2)cc1 [Sulfaphenazole] | > 200 µM and > 62.9 µg/mL | – | 12.5 µM and 3.9 µg/mL | 3.2 µM and 1 µg/mL | – | – | – | – | – | – | – | – | – | 200 µM and 62.9 µg/mL | –
10 | Nc1ccc(S(=O)(=O)Nc2nccs2)cc1 [Sulfathiazole] | 50 µM and 12.8 µg/mL | – | 3.2 µM and 0.8 µg/mL | 1.6 µM and 0.4 µg/mL | – | – | – | – | – | – | – | – | – | 6.25 µM and 1.6 µg/mL | –
11 | Cc1noc(NS(=O)(=O)c2ccc(N)cc2)c1C [Sulfisoxazole] | > 200 µM and > 53.7 µg/mL | – | > 200 µM | > 200 µM | – | – | – | – | – | – | – | – | – | > 200 µM | –
